Entries after “also recorded” stand apart in the source; their conditions may differ.
Legend:
[1] = test system: human PBMCs of individuals naturally exposed to C. burnetii; assay type: cell-based
[2] = test system: splenocytes from tgHLA-DR3 mice; conditions: in vivo; for # of mice responding: mouse
DRB1*0301 = target: T1, DRB1*0301 (Homo sapiens, UniProt P01903+P01911, A100K/A102G/A103R/A169T/F55Y/I96L/K41T/L162R/M171V/P40S/Q125H/Q178H/Q39Y/R42S/S66N/T106N/T262R/W38E/Y61H); test: HLA class II competition binding assay, DRB1*0301; conditions: peptides immunogenic in tgHLA-DR3 mice
T1 construct: purchased Benaroya Institute, Seattle, Wash

Sequence: AENVLIIHNKTLAHRYLA [p31]
- Highly antigenic / highly reactive peptide in the human cohort [1]: highly reactive
- SFU, Mouse 1/3 [2]: 0
- SFU, Mouse 2/3 [2]: 14
- SFU, Mouse 3/3 [2]: 84
- SI (stimulation index), Mouse 1/3 [2]: 0.88
- SI (stimulation index), Mouse 2/3 [2]: 1.72
- SI (stimulation index), Mouse 3/3 [2]: 4.32
- # of mice responding [2]: 1

Sequence: AIYFIGWYANLAHIKLGIS [p9]
- Recognition of HLA class II peptide by any subject [1]: not recognized by any subject

Sequence: DGRLEQLNSQNQQLQ [p33]
- Donors recognizing peptides recognized only within group C [1]: single
- Donors recognizing peptides recognized solely by past asymptomatic subjects [1]: 1/33
- Human immunoreactive in at least one IGRA+ donor (category) [1]: at least one IGRA + donor

Sequence: DHAYKLAVSSTKSMT [p42]
- Donors recognizing peptides recognized solely by past asymptomatic subjects [1]: 3/33

Sequence: DQRITQLKNLNSNNSDSSNDN [p49]
- Recognition of HLA class II peptide by any subject [1]: not recognized by any subject

Sequence: EAVYKGFTPLKAEDIAEA [p19]
- Highly antigenic / highly reactive peptide in the human cohort [1]: highly antigenic

Sequence: EHTIVVNASASEAAALQ [p10]
- Donors recognizing peptides recognized only within group C [1]: multiple donors
- Human immunoreactive in at least one IGRA+ donor (category) [1]: at least one IGRA + donor
- SFU, Mouse 1/3 [2]: 256
- SFU, Mouse 2/3 [2]: 82
- SFU, Mouse 3/3 [2]: 43
- SI (stimulation index), Mouse 1/3 [2]: 5.80
- SI (stimulation index), Mouse 2/3 [2]: 4.51
- SI (stimulation index), Mouse 3/3 [2]: 2.00
- # of mice responding [2]: 2

Sequence: FTFRSQDSRRVQEW [p13]
- Donors recognizing peptides recognized solely by past asymptomatic subjects [1]: 1/33
- Human immunoreactive in at least one IGRA+ donor (category) [1]: at least one IGRA + donor

Sequence: GLSWLTILKKRNNYRDSFN [p44]
- Human immunoreactive in at least one IGRA+ donor (category) [1]: at least one IGRA + donor

Sequence: GVAYTYNRANAGLPTNK [p45]
- Highly antigenic / highly reactive peptide in the human cohort [1]: highly antigenic
- Number of IGRA+ subjects recognizing the peptide [1]: 7/56
- Proportion of IGRA+ donors with IFNγ recall response to the peptide, SI cutoff of 2 [1]: 12.5%

Sequence: IARYFMVNISQLIGEE [p21]
- Number of IGRA+ subjects recognizing the peptide [1]: 8/56
- Number of IGRA− subjects recognizing the peptide [1]: 3/21
- Proportion of IGRA+ donors with IFNγ recall response to the peptide, SI cutoff of 2 [1]: 14.3%
- Recall response frequency in IGRA− donors [1]: 14.3%

Sequence: IDHLQQMTRQQVAMQTHK [p36]
- Human immunoreactive in at least one IGRA+ donor (category) [1]: at least one IGRA + donor
- SFU, Mouse 1/3 [2]: 52
- SFU, Mouse 2/3 [2]: 55
- SFU, Mouse 3/3 [2]: 0
- SI (stimulation index), Mouse 1/3 [2]: 3.44
- SI (stimulation index), Mouse 2/3 [2]: 3.86
- SI (stimulation index), Mouse 3/3 [2]: 0.86
- # of mice responding [2]: 2
- Binding to DRB1*0301 in vitro (DRB1*0301): all except one (p36) also showed binding

Sequence: IKGWQEALTRMKPGAIWEI [p8]
- Human immunoreactive in at least one IGRA+ donor (category) [1]: at least one IGRA + donor

Sequence: ISLLVFKNSHRVQLWAK [p28]
- Donors recognizing peptides recognized solely by past asymptomatic subjects [1]: 1/33
- Human immunoreactive in at least one IGRA+ donor (category) [1]: at least one IGRA + donor
- SFU, Mouse 1/3 [2]: 63
- SFU, Mouse 2/3 [2]: 54
- SFU, Mouse 3/3 [2]: 41
- SI (stimulation index), Mouse 1/3 [2]: 3.76
- SI (stimulation index), Mouse 2/3 [2]: 3.79
- SI (stimulation index), Mouse 3/3 [2]: 2.63
- # of mice responding [2]: 2

Sequence: KDDILEAVANMSVMDV [p3]
- Donors recognizing peptides recognized only within group C [1]: single
- Human immunoreactive in at least one IGRA+ donor (category) [1]: at least one IGRA + donor

Sequence: LAQYRELEAFSQFAS [p5]
- Human immunoreactive in at least one IGRA+ donor (category) [1]: at least one IGRA + donor

Sequence: LKDVVALRNQAQTAK [p41]
- Human immunoreactive in at least one IGRA+ donor (category) [1]: at least one IGRA + donor
- SFU, Mouse 1/3 [2]: 87
- SFU, Mouse 2/3 [2]: 30
- SFU, Mouse 3/3 [2]: 0
- SI (stimulation index), Mouse 1/3 [2]: 5.06
- SI (stimulation index), Mouse 2/3 [2]: 2.55
- SI (stimulation index), Mouse 3/3 [2]: 0.98
- # of mice responding [2]: 1

Sequence: LKPFHFISSPTRDLQIA [p16]
- Highly antigenic / highly reactive peptide in the human cohort [1]: highly reactive
- Human immunoreactive in at least one IGRA+ donor (category) [1]: at least one IGRA + donor
- SFU, Mouse 1/3 [2]: 180
- SFU, Mouse 2/3 [2]: 27
- SFU, Mouse 3/3 [2]: 19
- SI (stimulation index), Mouse 1/3 [2]: 8.94
- SI (stimulation index), Mouse 2/3 [2]: 2.05
- SI (stimulation index), Mouse 3/3 [2]: 1.94
- # of mice responding [2]: 1

Sequence: LSSIIHKLTSFSKTEA [p38]
- Highly antigenic / highly reactive peptide in the human cohort [1]: highly antigenic

Sequence: MMEHLQNITNLVSTGRQGA [p15]
- Highly antigenic / highly reactive peptide in the human cohort [1]: highly antigenic

Sequence: NAGIIRNKLKIQATIN [p43]
- Donors recognizing peptides recognized solely by past asymptomatic subjects [1]: 3/33
- SFU, Mouse 1/3 [2]: 135
- SFU, Mouse 2/3 [2]: 65
- SFU, Mouse 3/3 [2]: 116
- SI (stimulation index), Mouse 1/3 [2]: 4.88
- SI (stimulation index), Mouse 2/3 [2]: 3.04
- SI (stimulation index), Mouse 3/3 [2]: 4.48
- # of mice responding [2]: 3

Sequence: PAKINLARTYIAMED [p34]
- Recognition of HLA class II peptide by any subject [1]: not recognized by any subject

Sequence: PDYVLNAVNHIRYKP [p14]
- Highly antigenic / highly reactive peptide in the human cohort [1]: highly reactive; also recorded: highly antigenic
- SFU, Mouse 1/3 [2]: 157
- SFU, Mouse 2/3 [2]: 371
- SFU, Mouse 3/3 [2]: 11
- SI (stimulation index), Mouse 1/3 [2]: 7.94
- SI (stimulation index), Mouse 2/3 [2]: 20.21
- SI (stimulation index), Mouse 3/3 [2]: 1.42
- # of mice responding [2]: 2

Sequence: PITKKQLKTMSNYEVIAK [p11]
- Recognition of HLA class II peptide by any subject [1]: not recognized by any subject

Sequence: QELEVAQNKAMSDFM [p39]
- Human immunoreactive in at least one IGRA+ donor (category) [1]: at least one IGRA + donor

Sequence: QGHIINIGSISSHQV [p18]
- Highly antigenic / highly reactive peptide in the human cohort [1]: highly antigenic

Sequence: QNAFQLQETIVSTEN [p40]
- Recognition of HLA class II peptide by any subject [1]: not recognized by any subject

Sequence: REAVLFLVTIKELLEDP [p23]
- Highly antigenic / highly reactive peptide in the human cohort [1]: highly antigenic
- SFU, Mouse 1/3 [2]: 69
- SFU, Mouse 2/3 [2]: 21
- SFU, Mouse 3/3 [2]: 63
- SI (stimulation index), Mouse 1/3 [2]: 2.30
- SI (stimulation index), Mouse 2/3 [2]: 1.89
- SI (stimulation index), Mouse 3/3 [2]: 2.47
- # of mice responding [2]: 2

Sequence: RLGFMSFFTKAVVEALKRF [p22]
- Highly antigenic / highly reactive peptide in the human cohort [1]: highly reactive; also recorded: highly antigenic

Sequence: SDMWQALLAGKSGVK [p25]
- Donors recognizing peptides recognized solely by past asymptomatic subjects [1]: 3/33
- Human immunoreactive in at least one IGRA+ donor (category) [1]: at least one IGRA + donor

Sequence: SEQITLQTAEKVGLNVA [p1]
- Donors recognizing peptides recognized only within group C [1]: multiple donors
- Human immunoreactive in at least one IGRA+ donor (category) [1]: at least one IGRA + donor

Sequence: SHEVLHAMSRGVEVLA [p6]
- Donors recognizing peptides recognized only within group C [1]: multiple donors

Sequence: SRAFLTANKNKPGVKT [p7]
- Human immunoreactive in at least one IGRA+ donor (category) [1]: at least one IGRA + donor

Sequence: TGEIVKMINQAKQSIYVQG [p32]
- Human immunoreactive in at least one IGRA+ donor (category) [1]: at least one IGRA + donor
- SFU, Mouse 1/3 [2]: 64
- SFU, Mouse 2/3 [2]: 70
- SFU, Mouse 3/3 [2]: 28
- SI (stimulation index), Mouse 1/3 [2]: 3.82
- SI (stimulation index), Mouse 2/3 [2]: 4.62
- SI (stimulation index), Mouse 3/3 [2]: 2.11
- # of mice responding [2]: 2

Sequence: TPTFVIGNKALTKFGF [p2]
- Highly antigenic / highly reactive peptide in the human cohort [1]: highly reactive
- SFU, Mouse 1/3 [2]: 120
- SFU, Mouse 2/3 [2]: 141
- SFU, Mouse 3/3 [2]: 18
- SI (stimulation index), Mouse 1/3 [2]: 6.63
- SI (stimulation index), Mouse 2/3 [2]: 8.28
- SI (stimulation index), Mouse 3/3 [2]: 1.53
- # of mice responding [2]: 2

Sequence: VAKLRGDLSSIIHKL [p37]
- Highly antigenic / highly reactive peptide in the human cohort [1]: highly antigenic

Sequence: VARVSRLKDNFVVLEISKGTEITVQ [p29]
- Donors recognizing peptides recognized solely by past asymptomatic subjects [1]: 1/33
- Human immunoreactive in at least one IGRA+ donor (category) [1]: at least one IGRA + donor

Sequence: VFNITLQKVMAPELPVL [p35]
- Recognition of HLA class II peptide by any subject [1]: not recognized by any subject

Sequence: VPGYRNASSKRFVAP [p46]
- Highly antigenic / highly reactive peptide in the human cohort [1]: highly antigenic

From patent US11690902B2 (priority 2018, dated 2023)
